Results: paper PMC9917201, “Enhanced Antibacterial Activity of Substituted Derivatives of NCR169C Peptide” (International Journal of Molecular Sciences, 2023)
≈ marks a conversion by molar mass, not a printed value. Where two headings read alike, the source gives them in different places. Non-standard residues stand in square brackets, D forms with d. Residues, ends and D or L forms follow the SMILES beside them. ξ: configuration not given here. ξTrp(6-F) = NC(Cc1c[nH]c2cc(F)ccc12)C(=O)O

Columns and labels:
E. coli (ATCC 35218) = assay type: cell-based, Escherichia coli; details: ATCC 35218, 3 h, pH 7.4
Source text: (§1) The bacterial strains for the antimicrobial assay were obtained from the ATCC (American Type Culture Collection, Manassas, VA, USA) and NCTC (National Collection of Type Cultures, Salisbury, UK). Gram-negative strains were Pseudomonas aeruginosa (ATCC 27853), Escherichia coli (ATCC 8739, ATCC 35218, and ATCC 25922), Salmonella enterica (ATCC 13076), Klebsiella pneumoniae (NCTC 13440), Acinetobacter baumannii (ATCC 17978) and the Gram-positive strains were Enterococcus faecalis (ATCC 29212), Listeria monocytogenes (ATCC 19111), and Staphylococcus aureus (HNCMO112011 and ATCC 25923).
(§2) Determination of antibacterial activity for the peptides was carried out by utilizing a minimum bactericidal concentration (MBC) bioassay. Synthesized peptides were dissolved in sterile water and used from 25 to 0.125 μM in 2-fold dilution series and incubated with ~10^7 log phase bacteria in Potassium-Phosphate Buffer (PPB, pH: 7.4) for three hours as described earlier. After that, 5 μl of each sample was placed on LB agar and the growth of bacteria was monitored after overnight incubation at 37 °C. The lowest concentration of the antimicrobial agents that completely eliminated viable bacteria was considered the minimal bactericidal concentration (MBC).

E. coli (ATCC 25922) = assay type: cell-based, Escherichia coli; details: ATCC 25922, 3 h, pH 7.4
Source text: as §1, §2

S. aureus (ATCC 25923) = assay type: cell-based, Staphylococcus aureus; details: ATCC 25923, 3 h, pH 7.4
Source text: as §1, §2

[1] = system: Acinetobacter baumannii (ATCC 17978); assay type: cell-based; details: ATCC 17978, 3 h, pH 7.4
Summary of the method: (§3)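 Log-phase bacteria (~10^7) were exposed for three hours to twofold peptide dilutions from 25 to […] in potassium-phosphate buffer at pH 7.4. Aliquots were then plated on LB agar and incubated overnight at 37 °C. The minimal bactericidal concentration was the lowest dose eliminating all viable bacteria.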

[2] = system: Salmonella enterica (ATCC 13076); assay type: cell-based
Summary of the method: as §3

[3] = system: Listeria monocytogenes (ATCC 19111); assay type: cell-based; details: ATCC 19111, 3 h, pH 7.4
Summary of the method: as §3

[4] = system: tested bacteria (ESKAPE pathogens, Listeria monocytogenes, Salmonella enterica); assay type: cell-based; details: 3 h, pH 7.4
Summary of the method: as §3

[5] = system: Klebsiella pneumoniae (NCTC 13440); assay type: cell-based; details: NCTC 13440, 3 h, pH 7.4
Summary of the method: as §3

[6] = system: Staphylococcus aureus (HNCMO112011); assay type: cell-based
Summary of the method: as §3

[7] = system: Enterococcus faecalis (ATCC 29212); assay type: cell-based
Summary of the method: as §3

[8] = system: Escherichia coli (ATCC 8739); assay type: cell-based
Summary of the method: as §3

[9] = system: Pseudomonas aeruginosa (ATCC 27853); assay type: cell-based; details: ATCC 27853, 3 h, pH 7.4
Summary of the method: as §3

Candida species = details: cited from earlier work
Source text: NCR169, a cationic peptide (net charge at pH7 is 1.91) consisting of 38 amino acids with four cysteine residues, is crucial for bacteroid differentiation, and its absence results in no nitrogen fixation but premature nodule senescence. Two NMR structures of NCR169 produced in Escherichia coli resulting from different disulfide bond patterns have been determined by utilizing the ^1H-^15N heteronuclear single-quantum coherence (HSQC) NMR technique.

[10] = system: tested bacteria (ESKAPE pathogens, Listeria monocytogenes, Salmonella enterica); parameters: method as in PMID 32153547; details: same bacterial species; cited from earlier work
[11] = Enterococcus faecalis ATCC 29212, ~10^7 log phase bacteria, 3 h in potassium-phosphate buffer (PPB) pH 7.4, peptide 25 to 0.125 μM 2-fold series, 5 μl on LB agar, overnight 37 °C

Compound | MBC E.c. ATTC 35218 (E. coli (ATCC 35218)) [µM] | MBC E.c. ATTC 25922 (E. coli (ATCC 25922)) [µM] | MBC S.a. ATTC 25923 (S. aureus (ATCC 25923)) [µM] | Minimal bactericidal concentration (MBC) A. b. [1] [µM] | Minimal bactericidal concentration (MBC) S. e. ([2]; ATCC 13076, 3 h, pH 7.4) [µM] | Minimal bactericidal concentration (MBC) L. m. [3] [µM] | MBC against most or all of the tested bacteria [4] [µM] | Minimal bactericidal concentration (MBC) K. p. [5] [µM] | Minimal bactericidal concentration (MBC) S. a. ([6]; HNCMO112011, 3 h, pH 7.4) [µM] | Minimal bactericidal concentration (MBC) E. f. ([7]; ATCC 29212, 3 h, pH 7.4) [µM] | Minimal bactericidal concentration (MBC) E. c. ([8]; ATCC 8739, 3 h, pH 7.4) [µM] | Minimal bactericidal concentration (MBC) P. a. [9] [µM] | antifungal activity against different Candida species (Candida species) | Minimal bactericidal concentration (MBC) S. e. ([2]; Salmonella enterica ATCC 13076, ~10^7 log phase bacteria, 3 h in PPB pH 7.4, peptide 25 to 0.125 μM 2-fold series, plated on LB agar, overnight 37 °C) | Minimal bactericidal concentration (MBC) S. a. ([6]; Staphylococcus aureus HNCMO112011, ~10^7 log phase bacteria, 3 h in PPB pH 7.4, peptide 25 to 0.125 μM 2-fold series, plated on LB agar, overnight 37 °C) | Minimal bactericidal concentration (MBC) E. f. [7, 11] | Minimal bactericidal concentration (MBC) E. c. ([8]; Escherichia coli ATCC 8739, ~10^7 log phase bacteria, 3 h in PPB pH 7.4, peptide 25 to 0.125 μM 2-fold series, plated on LB agar, overnight 37 °C) [µM] | MBCs compared with the NCR169 peptide derivatives [10]
CC[C@H](C)[C@H](NC(=O)[C@H](CCCCN)NC(=O)[C@H](Cc1ccccc1)NC(=O)[C@H](CC(C)C)NC(=O)[C@@H]1CCCN1C(=O)[C@H](CCCCN)NC(=O)[C@H](CCCCN)NC(=O)[C@H](CO)NC(=O)[C@@H](N)CCCCN)C(=O)NC(Cc1c[nH]c2cc(F)ccc12)C(=O)N[C@@H](CCCCN)C(=O)N[C@@H](CO)C(=O)N[C@H](C(=O)N[C@@H](CCC(=O)O)C(=O)N[C@@H](CC(N)=O)C(=O)N[C@H](C(=O)N[C@@H](CO)C(=O)N[C@H](C(=O)N[C@@H](CC(C)C)C(=O)N[C@@H](Cc1c[nH]c2ccccc12)C(=O)N[C@@H](Cc1ccc(O)cc1)C(=O)N[C@@H](CCCCN)C(N)=O)C(C)C)C(C)C)C(C)C (stereo partly drawn) [NCR169C17–38C12,17/S-10W^6-F I] (H-KSKKPLFKI[ξTrp(6-F)]KSVENVSVLWYK-NH2; N-terminus assumed) | 0.8 (≈ 2.18 µg/mL) | 0.8 (≈ 2.18 µg/mL) | 1.6 (≈ 4.36 µg/mL) | 1.6 (≈ 4.36 µg/mL) | 1.6 (≈ 4.36 µg/mL) | 1.6 (≈ 4.36 µg/mL) | 0.8 to 1.6 | 1.6 (≈ 4.36 µg/mL) | 0.8 (≈ 2.18 µg/mL) | 1.6 (≈ 4.36 µg/mL) | 0.8 (≈ 2.18 µg/mL) | 0.8 (≈ 2.18 µg/mL) | – | – | – | – | – | –
CC[C@H](C)[C@H](NC(=O)[C@H](CCCCN)NC(=O)[C@H](Cc1ccccc1)NC(=O)[C@H](CC(C)C)NC(=O)[C@@H]1CCCN1C(=O)[C@H](CCCCN)NC(=O)[C@H](CCCCN)NC(=O)[C@H](CO)NC(=O)[C@@H](N)CCCCN)C(=O)N[C@@H](C)C(=O)N[C@@H](CCCCN)C(=O)N[C@@H](CS)C(=O)N[C@H](C(=O)N[C@@H](CCC(=O)O)C(=O)N[C@@H](CC(N)=O)C(=O)N[C@H](C(=O)N[C@@H](CS)C(=O)N[C@H](C(=O)N[C@@H](CC(C)C)C(=O)N[C@@H](C)C(=O)N[C@@H](Cc1ccc(O)cc1)C(=O)N[C@@H](CCCCN)C(N)=O)C(C)C)C(C)C)C(C)C [NCR169C17–38W10,20/A] (H-KSKKPLFKIAKCVENVCVLAYK-NH2; N-terminus assumed) | – | – | – | 3.1 (≈ 7.78 µg/mL) | – | 25 (≈ 62.7 µg/mL) | – | 12.5 (≈ 31.4 µg/mL) | – | – | 3.1 (≈ 7.78 µg/mL) | 3.1 (≈ 7.78 µg/mL) | possess antifungal activity | - (-: inactive up to 25 μM) | - (-: inactive up to 25 μM) | - (-: inactive up to 25 μM) | – | –
CC[C@H](C)[C@H](NC(=O)[C@H](CCCCN)NC(=O)[C@H](Cc1ccccc1)NC(=O)[C@H](CC(C)C)NC(=O)[C@@H]1CCCN1C(=O)[C@H](CCCCN)NC(=O)[C@H](CCCCN)NC(=O)[C@H](CO)NC(=O)[C@@H](N)CCCCN)C(=O)N[C@@H](Cc1c[nH]c2ccccc12)C(=O)N[C@@H](CCCCN)C(=O)N[C@@H](CS)C(=O)N[C@H](C(=O)N[C@@H](CCC(=O)O)C(=O)N[C@@H](CC(N)=O)C(=O)N[C@H](C(=O)N[C@@H](CS)C(=O)N[C@H](C(=O)N[C@@H](CC(C)C)C(=O)N[C@@H](Cc1c[nH]c2ccccc12)C(=O)N[C@@H](Cc1ccc(O)cc1)C(=O)N[C@@H](CCCCN)C(N)=O)C(C)C)C(C)C)C(C)C [NCR169C17–38] (H-KSKKPLFKIWKCVENVCVLWYK-NH2; N-terminus assumed) | 1.6 (≈ 4.38 µg/mL) | 1.6 (≈ 4.38 µg/mL) | 3.1 (≈ 8.49 µg/mL) | 3.1 (≈ 8.49 µg/mL) | 3.1 (≈ 8.49 µg/mL) | 3.1 (≈ 8.49 µg/mL) | 3.1 | 3.1 (≈ 8.49 µg/mL) | 3.1 (≈ 8.49 µg/mL) | – | – | 3.1 (≈ 8.49 µg/mL) | possess antifungal activity | – | – | 6.3 µM (≈ 17.3 µg/mL) | 1.6 (≈ 4.38 µg/mL) | –
CC1(C)S[C@@H]2[C@H](NC(=O)C(C(=O)O)c3ccccc3)C(=O)N2[C@H]1C(=O)O (stereo partly drawn) [carbenicillin] | – | – | – | – | – | – | – | – | – | – | – | – | – | – | – | – | – | 2–4 fold
C[C@H]1COc2c(N3CCN(C)CC3)c(F)cc3c(=O)c(C(=O)O)cn1c23 [levofloxacin] | – | – | – | – | – | – | – | – | – | – | – | – | – | – | – | – | – | either similar or 200-fold higher
